The values that follow come from PubChem BioAssay AID624254 (Broad Institute, 2012).

Activity calls are given as the source filed them. No rule for the calls is given here.

A short description of the assay: Luciferase light induction in v cholerae bh1651, agonist dose response, confirmatory (AID 624254). The note with it: V. cholerae BH1651 luxOD47E, luciferase light induction, 6 h; at 50 µM (top of the series).
Turning to `CCCCN(C)CCNC(=O)c1ccc2c(c1)NC(=O)C(N1CCCCC1)S2` (centres undefined), the “activation (light increase)” value was “inactive”. For `O=C(c1cn(-c2ccccc2)nc1-c1cccs1)N1CCOCC1`, the “activation (light increase)” value is “inactive”. As to `O=Cc1cc(OCc2ccccc2)ccc1B(O)O`, the “activation (light increase)” value was “inactive”. The value for `CC(=O)Nc1ccc(S(=O)(=O)NCCC(=O)OCC(=O)c2cc(C)ccc2C)cc1` was “inactive”; that for `Cc1noc(C)c1NC(=O)Nc1cccc2c1O[C@H](CN(C)S(=O)(=O)c1cccs1)[C@@H](C)CN([C@H](C)CO)C2=O` was “inactive”.

With `Cc1cc(OC(F)F)ccc1NC(=S)NCCc1ccccc1`, the “activation (light increase)” value is “inactive”. The value for `CCn1c(CC(=O)Nc2cccc(Cl)c2Cl)nnc1SCCOc1ccc(OC)cc1` was “inactive”; that for `COc1ccc(NC(=O)CSc2ccc3c(c2)OCCO3)cc1OC` was “inactive”; that for `Cc1c(C(=O)c2ccc(F)cc2F)c2ccccn2c1CCc1ccccn1` was “inactive”. The value for `C[C@H](CO)N1C[C@H](C)[C@H](CN(C)S(=O)(=O)c2cccs2)Oc2c(NC(=O)C3CC3)cccc2C1=O` was “inactive”; that for `CCOC(=O)c1cnc(SCC(=O)OCC(=O)NC2CCS(=O)(=O)C2)nc1N` (centres undefined) was “inactive”; that for `CCOC(=O)C1CCN(C(=O)C2c3ccccc3C(=O)N(C)C2c2ccc(OC)cc2)CC1` (centres undefined) was “inactive”. On to `CCc1sc(N(C(=O)Cc2ccccc2)c2ccc(F)cc2)nc1-c1ccccc1`, for which the “activation (light increase)” value was “inactive”. Turning to `Cc1nc(=O)c(-c2ccccc2)c(C)n1CCCCCC(=O)O`, the “activation (light increase)” value was “inactive”. Regarding `COc1ccc(NC(=O)COc2cccc3c2CCNC3=O)cc1`, the “activation (light increase)” value is “inactive”.

Turning to `CCOC(=O)c1nnn(-c2nonc2N)c1CN1CCc2ccccc2C1`, the “activation (light increase)” value was “inactive”. The value for `FC(F)(F)c1nnc2sc(-c3cccs3)nn12` was “inactive”. With `COc1ccc(OCC(=O)Nc2ccccc2OC)cc1` the entry was “inactive”; with `CC(C)CNC(=O)COC(=O)/C=C/c1ccco1`, “inactive”. The value for `CCOC(=O)CSc1nc(C)cc(C)c1C#N` was “inactive”. As to `CC(=O)Nc1ccc(NC(=O)c2ccccc2C)cc1`, the “activation (light increase)” value was “inactive”. The value for `CCOCCCNC(=O)C(NC(=O)c1cnccn1)c1ccc(C)cc1` (centres undefined) was “inactive”; that for `O=[N+]([O-])c1ccc(NCCN2CCOCC2)c([N+](=O)[O-])c1` was “inactive”; that for `Cc1[nH]c2ccc3c(ncn3CCC#N)c2c1C` was “inactive”. The value for `COCCN(C(=O)C1CCC1)c1nnc(-c2cccnc2)s1` was “inactive”; that for `O=C(COC(=O)[C@H](Cc1c[nH]c2ccccc12)NC(=O)c1ccc(Cl)cc1)Nc1ccc2c(c1)OCO2` was “inactive”; that for `Cc1cnc(C(=O)OCC(=O)NC(=O)NC(C)C)cn1` was “inactive”.

In the case of `O=C(Cc1ccc(-c2ccccc2)cc1)NC1CCCC1`, the “activation (light increase)” value is “inactive”. With `COC(=O)c1cc(NC(=O)C2CC=CCC2C(=O)O)cc(C(=O)OC)c1` (centres undefined) the entry was “inactive”; with `C=CCn1c(-c2cc(OC)cc(OC)c2)n[nH]c1=S`, “inactive”; with `CCCn1nnnc1NCc1ccc(CC)cc1`, “inactive”. The value for `Cn1c(CCNC(=O)c2ccco2)nc2cc(NC(=O)NC3CCCCC3)ccc21` was “inactive”; that for `CCOC(=O)c1sc2cc([N+](=O)[O-])cc(SCCO)c2c1N` was “inactive”; that for `COc1cc(C(N)=O)cc(Br)c1OC` was “inactive”.
